Measured values taken from US20230050846A1, “TREATMENT OF HEPATIC AND CARDIOVASCULAR DISORDERS” (LIFESEARCH, priority 2019, published 2023).

System: C57B/L6J mice fed CDAHFD
Assay: CDAHFD diet-induced NASH associated hepatic fibrosis mouse model
Type: in vivo
Conditions: sc infusion two weeks, 5 mg/kg BW/day
Protocol: Wild-type C57B/L6J male mice were purchased from Janvier Labs (Le Genest Saint Isle, France). Mice were caged in animal rooms under specific pathogen free conditions at the animal facility of Rangueil (Anexplo platform, US006, Toulouse, France) with a light/dark schedule of 12 h/12 h. At the initiation of the dietary intervention, all animals were 8 weeks old and were fed ad libitum with a normal chow diet (#V1535 R/M-H, Ssniff, Germany). All animal experimental procedures were conducted in accordance with institutional guidelines on animal experimentation approved by the local ethical committee of animal care and are conformed to the guidelines from Directive 2010/63/EU of the European Parliament on the protection of animals used for scientific purposes or the NIH guideline.
8 weeks old mice were fed for 6 week a choline-deficient, L-amino acid-defined, high-fat diet (CDAHFD #A06071302, Research Diet, USA) consisting of 60 kcal % fat and 0.1% methionine by weight. For the 2 last weeks of the 6-week period, a group of mice were implanted with an osmotic pump containing the peptide of formula (I). Briefly, 200 μL osmotic pump were filled with 10 mg/mL of the peptide of formula (I) in PBS and were implanted subcutaneously into the mice according to the manufacturer's instructions (Alzet®, model pump #2002), to insure the peptide of formula (I) release at an estimated rate of 0.5 μL/h, which corresponds to an estimated amount of delivery of 5 mg of the peptide of formula (I) per kilogram of body weight per day (5 mg/kg BW/day). The control group was composed of mice that underwent the same chirurgical procedure used for osmotic pump implantation (sham-operated mice).
Liver histology. […] Fibrosis was assessed by Sirius Red staining. […]
Hepatic hydroxyproline was determined by hydrolizing 80-140 mg liver in a 6N HCl solution, overnight, at 110 degrees Celsius. […] Absorbance was measured at 550 nm and the results are expressed as micrograms of hepatic hydroxyproline per mg tissue.

## Ac-RGAGSIREAGGAFGKREQAEEERYFRAQSRE-NH2 [peptide of formula (I), CH3CO-[SEQ ID NO: 1]-NH2]
p<0.01 vs sham-operated mice
  collagen deposition (Sirius Red staining): less collagen deposition
p<0.05 vs sham-operated mice
  decrease in the concentration of hydroxyproline content per milligram of liver: more than 35%
Vs sham-operated mice
  CDAHFD diet-induced increase of hepatic fibrosis: significantly attenuated
